We go through one substance from patent US7150974B1, “Parathyroid hormone receptor binding method” (The General Hospital Corporation, priority 1991, dated 2006).

The target in this test is T1, rat bone PTH/PTHrP receptor (Rattus norvegicus, UniProt P25961, E586G).
T1 construct: expressed in transfected cells; host or cells: COS / COS-7 cells, transient, plasmid R15B (pcDNA I)
T1 sequence (P25961 27-591 E586G): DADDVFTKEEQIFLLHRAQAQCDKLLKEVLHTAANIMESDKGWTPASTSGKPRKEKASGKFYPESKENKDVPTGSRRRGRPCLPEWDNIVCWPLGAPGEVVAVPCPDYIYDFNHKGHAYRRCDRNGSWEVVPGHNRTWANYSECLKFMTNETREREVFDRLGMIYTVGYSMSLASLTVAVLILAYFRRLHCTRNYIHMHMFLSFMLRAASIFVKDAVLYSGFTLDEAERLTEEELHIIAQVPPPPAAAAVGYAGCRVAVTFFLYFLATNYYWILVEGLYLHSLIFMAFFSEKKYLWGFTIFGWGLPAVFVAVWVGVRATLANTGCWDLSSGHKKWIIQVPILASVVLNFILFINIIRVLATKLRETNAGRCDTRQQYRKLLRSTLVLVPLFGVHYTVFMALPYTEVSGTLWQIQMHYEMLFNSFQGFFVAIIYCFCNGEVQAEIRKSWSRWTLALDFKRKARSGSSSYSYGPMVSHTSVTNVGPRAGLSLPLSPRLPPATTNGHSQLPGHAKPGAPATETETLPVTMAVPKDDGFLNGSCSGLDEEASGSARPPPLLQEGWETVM
As to the kind of experiment: Radioreceptor assay, COS cells expressing rat bone PTH/PTHrP receptor (R15B). In kind it is binding. As for the experimental part: In brief, the labeled peptide was dissolved in 0.1% trifluoracetic acid (TFA), applied to a C18 Sep-pak cartridge (Waters Associates, Inc., Milford, Mass.) and eluted with a solution of 60% acetonitrile in 0.1% TFA. After lyophilization, the radioligand then was applied to C18-μBondapak column (3.9 mm×30 cm. Waters Associates) and eluted over 30 min with a linear gradient of 30-50% acetonitrile-0.1% TFA at a flow rate of 2 ml/min.
COS-7 cells were grown in 15 cm plates in DMEM, 10% heat-inactivated […], 10 mg/L gentamycin until 80-90% confluent. Twenty-four hours after transfection by the DEAE/Dextran method (Sambrook et al., supra), with 1-2 μg of plasmid DNA, the cells were trypsinized and replated in multiwell plastic dishes (16 or 35 mm diameter, Costar, Cambridge, Mass.) at a cell concentration of 5×10^4 cells/cm^2). […] After continuing culture for another 48 h, radiorecepter assays were performed. The culture medium was replaced with buffer containing 50 mM Tris-HCL (pH 7.7), 100 mM NaCl, 2 mM CaCl2, 5 mM KCL, 0.5% heat-inactivated fetal bovine serum (GIBCO), and 5% heat-inactivated horse serum (KC Biological Inc., Lenexa, Kans.) immediately before studies were initiated.
Incubations were terminated by aspirating the buffer, and repeatedly (×3) washing the culture dishes, containing the adherent cells with chilled 0.9% NaCl solution, over a 15 sec period. Cell-bound radioactivity was recovered by the sequential addition (×3) of 1 N NaOH (200 μl) to each well. After 30 min at room temperature, the NaOH was transferred to a glass tube. A second and third extraction with 1 N NaOH (200 μl) were combined with the first, and the total radioactivity was counted in a γ-spectrometer (Packard Instruments, Downers Grove, Ill.).

As for [Nle^8,18, Tyr^34]bPTH(1-34)amide, the “inhibition of 125I-PTHrP binding by competitor” value (COS cells expressing R15B, FIG. 13) is “inhibited”. Further, the “specific binding of radiolabelled ligand” value (radiolabelled ligand ~200,000 cpm, COS-7 cells expressing R15B) turned out to be 8.1 ± 3.5%.
